Experimental data taken from patent US4229452A, “Treatment of inflammatory disorders with 4-trifluoromethylimidazo[1,2-a]quinoxaline” (Westwood Pharmaceuticals, Inc., priority 1979, dated 1980).

Key:
[1] = system: carrageenin-induced paw edema; experiment: carrageenin-induced paw edema test in the rat; assay type: in vivo, rat (Male Charles River); details: for inhibition in vivo at 16 mg/kg: 16 mg/kg po; for inhibition in vivo at 32 mg/kg: 32 mg/kg po; for inhibition in vivo at 64 mg/kg: 64 mg/kg po; for inhibition in vivo at 128 mg/kg: 128 mg/kg po; for ED30: calculated from the dose-response line; for inhibition in vivo at 8 mg/kg: 8 mg/kg po; for reduction of carrageenin-induced edema / anti-edema activity: result in words
Description: Compounds of the present invention were screened in the carrageenin-inducedpaw edema test in the rat. Acetylsalicylic acid was included in the study for reference comparison.
The method employed was the carrageenin edema test [Winter, C. A., Risley, E. A. and Nuss, G. W., Proc. Soc. exp. Biol. Med. 111:544(1962) and Halperin, B. N. and Briot, M., Arch Int. Pharmacody N. 82:247(1950)].
(§1) Male Charles River Rats weighing 145 to 180 g. were employed in the study. Food was withheld for 18 hours before the start of the test, while water was withheld only during the test. Experimental drugs with the desired dose in 3 ml. distilled water (Tween 80)/100 g. body weight were administered orally as suspensions by stomach tube. Control animals, those not receiving drugs, were given the same volume of vehicle by the same route of administration. To induce inflammation, the rear paw was injected into the plantar surface with 0.1 ml. of a 1% carrageenin solution in 0.9% saline. The right paw was also injected with 0.1 ml. of a 0.9% saline solution. At the time of sacrifice, the animals were killed by chloroform. The hind paws were rapidly amputated at tarsocrural joint and weighed on an analytical balance. In all cases the drugs were administered one hour before the paw injections and the sacrifice was performed three hours after the carrageenin injection. The difference in weight (g/100 b.w.) between the carrageenin and the saline injected paws was recorded as the degree of edema.
A comparison of the effectiveness of the test compounds and the standard reference agent, acetylsalicylic acid, in inhibiting edema resulting from the injection of carrageenin is recorded in the following Table XI.
It should be noted that ED30 refers to that dose which inhibits carrageenin-induced paw edema in 30% of the animals in the test group.

[2] = side-effects noted in the carrageenin-induced paw edema test; assay type: in vivo; details: rat; for Side-Effects Noted: rats died: 128 mg/kg po
Description: as §1

Question: What does the source list for `CC(C)Cc1nc2ccccc2n2ccnc12`?
Answer: inhibition in vivo at 16 mg/kg [1]: 0%; inhibition in vivo at 32 mg/kg [1]: 25%; inhibition in vivo at 64 mg/kg [1]: 23%; inhibition in vivo at 128 mg/kg [1]: 36%; ED30 ([1]; po): ~70 mg/kg

Question: For `C(=Cc1nc2ccccc2n2ccnc12)c1ccccc1`, which inhibition in vivo at 128 mg/kg [1] is on record?
Answer: 0%

Question: What about the ED30 ([1]; po) of the same compound?
Answer: > 128 mg/kg

Question: What about the “Side-Effects Noted” value ([2]; po) of the same compound?
Answer: NONE

Question: With `c1ccc2c(c1)nc(C1CCC1)c1nccn12` as the compound, how does the inhibition in vivo at 64 mg/kg [1] read?
Answer: 0%

Question: And the inhibition in vivo at 128 mg/kg [1]?
Answer: 64%

Question: And the ED30 ([1]; po)?
Answer: ~100 mg/kg

Question: And the “Side-Effects Noted” value ([2]; po)?
Answer: Ptosis at 128 mg/kg

Question: With `c1ccc2c(c1)nc(C1CCCCC1)c1nccn12` as the compound, how does the inhibition in vivo at 64 mg/kg [1] read?
Answer: 0%

Question: What about the inhibition in vivo at 128 mg/kg [1] of the same compound?
Answer: 60%

Question: And the ED30 ([1]; po)?
Answer: ~100 mg/kg

Question: What about the “Side-Effects Noted” value ([2]; po) of the same compound?
Answer: NONE

Question: For `c1ccc(Cc2nc3ccccc3n3ccnc23)cc1`, which inhibition in vivo at 64 mg/kg [1] is on record?
Answer: 0%

Question: And the inhibition in vivo at 128 mg/kg [1]?
Answer: 0%

Question: And the ED30 ([1]; po)?
Answer: > 128 mg/kg

Question: And the “Side-Effects Noted” value ([2]; po)?
Answer: NONE

Question: What does the source list for `c1ccc(OCc2nc3ccccc3n3ccnc23)cc1`?
Answer: inhibition in vivo at 128 mg/kg [1]: 0%; ED30 ([1]; po): > 128 mg/kg; Side-Effects Noted ([2]; po): NONE

Question: For `CC(=O)Oc1ccccc1C(=O)O` [ASPIRIN, acetylsalicylic acid, reference compound], which inhibition in vivo at 32 mg/kg [1] is on record?
Answer: 19%

Question: And the inhibition in vivo at 64 mg/kg [1]?
Answer: 32.5%

Question: And the inhibition in vivo at 128 mg/kg [1]?
Answer: 41%

Question: And the inhibition in vivo at 256 mg/kg ([1]; 256 mg/kg po)?
Answer: 62%

Question: And the ED30 ([1]; po)?
Answer: 59.5 mg/kg

Question: And the “Side-Effects Noted” value ([2]; po)?
Answer: NONE

Question: Which inhibition in vivo at 64 mg/kg [1] does the source give for `c1ccc2c(c1)ncc1nccn12` [Compound 109, imidazo[1,2-a]quinoxaline] here?
Answer: 6%

Question: And the inhibition in vivo at 128 mg/kg [1]?
Answer: 54%

Question: What about the ED30 ([1]; po) of the same compound?
Answer: ~100 mg/kg

Question: What about the “Side-Effects Noted: rats died” value [2] of the same compound?
Answer: 1/6

Question: For `Cc1nc2ccccc2n2ccnc12` [Compound 110], which inhibition in vivo at 8 mg/kg [1] is on record?
Answer: 12%

Question: What about the inhibition in vivo at 16 mg/kg [1] of the same compound?
Answer: 28%

Question: What about the inhibition in vivo at 32 mg/kg [1] of the same compound?
Answer: 33%

Question: What about the inhibition in vivo at 64 mg/kg [1] of the same compound?
Answer: 29%

Question: What about the inhibition in vivo at 128 mg/kg [1] of the same compound?
Answer: 42%

Question: And the ED30 ([1]; po)?
Answer: 40 mg/kg

Question: And the “reduction of carrageenin-induced edema / anti-edema activity” value ([1]; po)?
Answer: significant reductions of carrageenin-induced edema without attendant side effects

Question: What about the “Side-Effects Noted: rats died” value [2] of the same compound?
Answer: 1/6

Question: Which inhibition in vivo at 4 mg/kg ([1]; 4 mg/kg po) does the source give for `CCc1nc2ccccc2n2ccnc12` [Compound 111] here?
Answer: 6%

Question: What about the inhibition in vivo at 8 mg/kg [1] of the same compound?
Answer: 23%

Question: What about the inhibition in vivo at 16 mg/kg [1] of the same compound?
Answer: 32%

Question: And the inhibition in vivo at 32 mg/kg [1]?
Answer: 40%

Question: What about the inhibition in vivo at 64 mg/kg [1] of the same compound?
Answer: 41%

Question: What about the inhibition in vivo at 128 mg/kg [1] of the same compound?
Answer: 57%

Question: And the “anti-edemic activity relative to acetylsalicylic acid” value ([1]; po)?
Answer: approximately 3 X acetylsalicylic acid

Question: And the ED30 ([1]; po)?
Answer: 20.5 mg/kg

Question: What about the “reduction of carrageenin-induced edema / anti-edema activity” value ([1]; po, listed as CH2 CH3) of the same compound?
Answer: significant reductions of carrageenin-induced edema without attendant side effects

Question: What about the “reduction of carrageenin-induced edema / anti-edema activity” value ([1]; po, listed as ethyl analog) of the same compound?
Answer: strongest anti-edemic activity

Question: What about the selectivity ratio ([2]; in vivo, po, read-out: dose associated with side effects, as multiple of ED30) of the same compound?
Answer: ~3

Question: What does the source list for `CCCc1nc2ccccc2n2ccnc12` [Compound 112]?
Answer: inhibition in vivo at 64 mg/kg [1]: 0%; inhibition in vivo at 128 mg/kg [1]: 36%; ED30 ([1]; po): ~128 mg/kg

Question: Which results are given for `CCCCCc1nc2ccccc2n2ccnc12` [Compound 114]?
Answer: inhibition in vivo at 64 mg/kg [1]: 5%; inhibition in vivo at 128 mg/kg [1]: 23%; ED30 ([1]; po): > 128 mg/kg; Side-Effects Noted ([2]; po): NONE

Question: For `CCCCCCc1nc2ccccc2n2ccnc12` [Compound 115], which inhibition in vivo at 64 mg/kg [1] is on record?
Answer: 0%

Question: What about the inhibition in vivo at 128 mg/kg [1] of the same compound?
Answer: 27%

Question: And the ED30 ([1]; po)?
Answer: ~128 mg/kg

Question: And the “Side-Effects Noted” value ([2]; po)?
Answer: NONE

Question: Which inhibition in vivo at 128 mg/kg [1] does the source give for `CCCCCCCc1nc2ccccc2n2ccnc12` [Compound 116] here?
Answer: 0%

Question: What about the ED30 ([1]; po) of the same compound?
Answer: > 128 mg/kg

Question: And the “Side-Effects Noted” value ([2]; po)?
Answer: NONE

Question: Which inhibition in vivo at 128 mg/kg [1] does the source give for `CCCCCCCCc1nc2ccccc2n2ccnc12` [Compound 117] here?
Answer: 0%

Question: And the ED30 ([1]; po)?
Answer: > 128 mg/kg

Question: And the “Side-Effects Noted” value ([2]; po)?
Answer: NONE

Question: With `CCCCCCCCCc1nc2ccccc2n2ccnc12` [Compound 118] as the compound, how does the inhibition in vivo at 128 mg/kg [1] read?
Answer: 0%

Question: What about the ED30 ([1]; po) of the same compound?
Answer: > 128 mg/kg

Question: And the “Side-Effects Noted” value ([2]; po)?
Answer: NONE

Question: With `CCCCCCCCCCCCCCCc1nc2ccccc2n2ccnc12` [Compound 119] as the compound, how does the inhibition in vivo at 128 mg/kg [1] read?
Answer: 9%

Question: What about the ED30 ([1]; po) of the same compound?
Answer: > 128 mg/kg

Question: What about the “Side-Effects Noted” value ([2]; po) of the same compound?
Answer: NONE

Question: For `CCCCCCCCCCCCCCCCCc1nc2ccccc2n2ccnc12` [Compound 120], which inhibition in vivo at 64 mg/kg [1] is on record?
Answer: 0%

Question: And the inhibition in vivo at 128 mg/kg [1]?
Answer: 5%

Question: And the ED30 ([1]; po)?
Answer: > 128 mg/kg

Question: What about the “Side-Effects Noted” value ([2]; po) of the same compound?
Answer: NONE

Question: For `FC(F)(F)c1nc2ccccc2n2ccnc12` [Compound 122, 4-trifluoromethylimidazo[1,2-a]quinoxaline], which inhibition in vivo at 8 mg/kg [1] is on record?
Answer: 8%

Question: What about the inhibition in vivo at 16 mg/kg [1] of the same compound?
Answer: 29%

Question: And the inhibition in vivo at 32 mg/kg [1]?
Answer: 31%

Question: What about the inhibition in vivo at 64 mg/kg [1] of the same compound?
Answer: 39%

Question: And the inhibition in vivo at 128 mg/kg [1]?
Answer: 44%

Question: And the “anti-inflammatory activity relative to the ethyl analog” value ([1]; po)?
Answer: about half

Question: And the ED30 ([1]; po)?
Answer: 35.1 mg/kg

Question: What about the “reduction of carrageenin-induced edema / anti-edema activity” value ([1]; po) of the same compound?
Answer: significant reductions of carrageenin-induced edema without attendant side effects

Question: And the “dose associated with side effects, as multiple of ED30” value ([2]; po)?
Answer: does not show side effects at several multiples of its ED30

Question: And the “Side-Effects Noted” value ([2]; po, listed as CF3)?
Answer: NONE and did not produce any obvious untoward side effects

Question: And the “Side-Effects Noted” value ([2]; po, listed as trifluoromethyl analog)?
Answer: did not produce any side effects even at a dose of 128 mg/kg

Question: And the therapeutic index ([2]; po, result in words)?
Answer: very good therapeutic index

Question: And the “toxicity relative to the non-fluorinated analog” value ([2]; po, result in words)?
Answer: less toxic

Question: Which inhibition in vivo at 64 mg/kg [1] does the source give for `COCc1nc2ccccc2n2ccnc12` [Compound 125] here?
Answer: 1%

Question: What about the inhibition in vivo at 128 mg/kg [1] of the same compound?
Answer: 32%

Question: And the ED30 ([1]; po)?
Answer: ~128 mg/kg
